Assays:
BRD4 [1] = target: T1, BRD4 (Homo sapiens, UniProt O60885); experiment: Immunoblot analysis of BRD4 degradation in HSP90α-KO MDA-MB-231 cells; format: cell-based; conditions: 24 h
T1 construct: endogenous in cells; host or cells: WT MDA-MB-231 (ATCC)
From the text: (§1) Immunoblot analysis: Immunoblot analysis was used to evaluate the expression of BRD4, HSP90, HSP90a, and PD-L1 in 4T1, WT MDA-MB-231, HSP90α-KO MDA-MB-231 or PEA-10 cells after various treatments and also served as the detection method for IP or co-IP experiments. The procedures for preparing IP or co-IP samples were indicated in the relevant experimental parts.
Sample preparation for various cancer cells after free HAC treatment: Various cells, including 4T1, WT MDA-MB-231, HSP90α-KO MDA-MB-231, or PEA-10 cells, were seeded in 6-well culture plates with a density of 5×10^4 cells in each well and cultured for 24 h. Then, if HAI pretreatment was performed, the cells were incubated in the HAI-containing blank medium at different concentrations for 2 h and washed with PBS twice before the following treatments. […]
(§2) General procedures for immunoblot analysis: After a 30-min lysis, the lysates were centrifuged at 10,000 g for 10 minutes at 4° C., and the corresponding supernatants were collected, followed by quantification of the total proteins in the supernatant through the BCA assay. […] Finally, the bands were treated with electrochemiluminescence (ECL) western blot substrate, detected by the iBright™ imaging system and quantified with ImageJ software. […]

BRD4 [2] = target: T1, BRD4; experiment: Immunoblot analysis of BRD4 degradation in WT MDA-MB-231 cells after free HAC treatment; format: cell-based
From the text: as §1
Sample preparation for various cancer cells after free HAC treatment: Various cells, including 4T1, WT MDA-MB-231, HSP90α-KO MDA-MB-231, or PEA-10 cells, were seeded in 6-well culture plates with a density of 5×10^4 cells in each well and cultured for 24 h. Then, if HAI pretreatment was performed, the cells were incubated in the HAI-containing blank medium at different concentrations for 2 h and washed with PBS twice before the following treatments. The medium in the corresponding wells was replaced with 1 mL of blank medium containing the DMSO vehicle, HACs, or the combinations of various free ligands at the predetermined concentrations. After incubation for the indicated time points, cells were washed with PBS and lysed on ice with the relevant lysis buffer containing PMSF (1 mM) and the phosphatase inhibitor cocktail for 30 min. As for the conditioned medium (CM), the culturing complete medium of the corresponding cancer cells in each well was collected after 24-h incubation and subjected to centrifugation at 2000 rpm for 5 min to obtain the supernatant. The filtrate of the supernatants was collected following filtration over a 0.45 μm filter, serving as the CM. […]
as §2

BRD4 [3] = target: T2, BRD4 (Mus musculus, UniProt Q9ESU6); experiment: Immunoblot analysis of BRD4 degradation in 4T1 cells after free HAC treatment; format: cell-based, murine
T2 construct: endogenous in cells; host or cells: 4T1
From the text: as §1
Sample preparation for various cancer cells after free HAC treatment: Various cells, including 4T1, WT MDA-MB-231, HSP90α-KO MDA-MB-231, or PEA-10 cells, were seeded in 6-well culture plates with a density of 5×10^4 cells in each well and cultured for 24 h. Then, if HAI pretreatment was performed, the cells were incubated in the HAI-containing blank medium at different concentrations for 2 h and washed with PBS twice before the following treatments. The medium in the corresponding wells was replaced with 1 mL of blank medium containing the DMSO vehicle, HACs, or the combinations of various free ligands at the predetermined concentrations. After incubation for the indicated time points, cells were washed with PBS and lysed on ice with the relevant lysis buffer containing PMSF (1 mM) and the phosphatase inhibitor cocktail for 30 min. As for the conditioned medium (CM), the culturing complete medium of the corresponding cancer cells in each well was collected after 24-h incubation and subjected to centrifugation at 2000 rpm for 5 min to obtain the supernatant. The filtrate of the supernatants was collected following filtration over a 0.45 μm filter, serving as the CM. Regarding the cell samples for BRD4 detection, the lysis buffer containing HEPES-KOH (pH=7.5, 10 mM), NaCl (500 mM), EDTA (5 mM), NP-40 (1%), and SDS (0.1%) was used with the indicated PMSF and phosphatase inhibitor cocktail. As for PD-L1 detection, RIPA buffer (Thermo Fisher Scientific/J63306.AP) was used with the indicated PMSF and phosphatase inhibitor cocktail.
General procedures for immunoblot analysis: After a 30-min lysis, the lysates were centrifuged at 10,000 g for 10 minutes at 4° C., and the corresponding supernatants were collected, followed by quantification of the total proteins in the supernatant through the BCA assay. Afterward, the proteins in the supernatant were mixed with the loading buffer and heated at 95° C. for 15 min. Equal amounts of proteins from different samples ([…]) were loaded into the Bis-Tris gel formulated with Bis-Tis buffer, 30% acrylamide/Bis, 10% ammonium persulfate (APS) solution, and TEMED. The separated proteins were transferred to polyvinylidene fluoride (PVDF) membranes before the membranes were blocked with 5% nonfat milk in PBS-T. Next, the PVDF membranes were incubated with primary antibodies overnight at 4° C., if necessary, followed by the incubation with the goat-anti-rabbit IgG H & L (HRP) secondary antibodies at room temperature for 2 h. Finally, the bands were treated with electrochemiluminescence (ECL) western blot substrate, detected by the iBright™ imaging system and quantified with ImageJ software. 8% Bis-Tris gels were used for BRD4 detection, and 10% gels were adopted to analyze PD-L1.

4T1 cells = experiment: In-gel fluorescence detection of NA-647 internalization in 4T1 cells cotreated with HAC-B; format: cell-based, murine; conditions: 4T1 cells cotreated with HAC-B (all concentrations) and NA-647, 2 h
Description: In-gel fluorescence detection: In-gel fluorescence was mainly used to investigate the internalization of NeutrAvidin™_647 in HAC-B-treated cancer cells.
Sample preparation: 4T1 or WT MDA-MB-231 cells were seeded in 6-well culture plates with a density of 5×10^4 cells in each well and cultured for 24 h. If HAI pretreatment was performed, the cells were incubated in the HAI-containing blank medium at different concentrations for 2 h and washed with PBS twice before the following treatments. Then, the cells were treated with free HAC-B or the combinations of various ligands at the indicated concentrations for the predetermined time points. Next, the drug-containing medium was removed, and PBS was used to wash the cells twice, followed by incubating the cells in the blank medium containing NeutrAvidin™ DyLight™ 650 (NA-647, Invitrogen/84607) at 0.5 μM for 1 h. […]
In-gel fluorescence imaging: After 30-min lysis, the lysates were centrifuged at 10,000 g for 10 minutes at 4° C., and the corresponding supernatants were collected, followed by quantification of the total proteins in the supernatant through the BCA assay. […] After the proteins were separated, the gels were subjected to fluorescence imaging with the ChemiDoc™ MP imaging system (Bio-Rad).

Row | Compound | remaining BRD4 degradation potency (BRD4 [1]) | effect of HSP90α deficiency on BRD4 degradation efficacy (BRD4 [1]; lower and higher concentration ranges) | shape of concentration response of BRD4 degradation (BRD4 [2]; at relatively lower concentrations, reversed at 20 μM) | time dependence of BRD4 downregulation (BRD4 [2]; at the two effective concentrations) | BRD4 degradation in presence of proteasome inhibitor epoxomicin (Epox) (BRD4 [3]; 4T1 and WT MDA-MB-231 cells (FIGS. 2K, 2L), lower or higher effective concentrations) | higher effective concentration that efficiently reduces BRD4 expression (BRD4 [3]; 4T1 cells, 24 h) [µM] | lower effective concentration that efficiently reduces BRD4 expression (BRD4 [3]; 4T1 cells, 24 h) [µM] | time dependence of BRD4 downregulation (BRD4 [3]; 4T1 cells, at the two effective concentrations) | shape of concentration response of BRD4 degradation (BRD4 [3]; 4T1 cells, at relatively lower concentrations, reversed at 20 μM) | internalization of NA-647 on cotreatment (4T1 cells)
1 | Cc1sc2c(c1C)C(c1ccc(Cl)cc1)=N[C@@H](CC(=O)NCc1cn(CCCC(=O)N(CC#N)S(=O)(=O)c3ccc(C(=O)NCCCn4c(Sc5cc6c(cc5I)OCO6)nc5c(N)ncnc54)cc3)nn1)c1nnc(C)n1-2 [iHAC, (S)—N-(3-(6-amino-8-((6-iodobenzo[d][1,3]dioxol-5-yl)thio)-9H-purin-9-yl)propyl)-4-(N-(4-(4-((2-(4-(4-chlorophenyl)-2,3,9-trimethyl-6H-thieno[3,2-f][1,2,4]triazolo[4,3-a][1,4]diazepin-6-yl)acetamido)methyl)-1H-1,2,3-triazol-1-yl)butanoyl)-N-(cyanomethyl)sulfamoyl)benzamide] | partially maintains the degradation potency | substantially compromised the BRD4 degradation efficacy | hook effect | in a time-dependent manner | rescue effect induced by proteasome inhibitor epoxomicin (Epox) | 20 | 0.16 | in a time-dependent manner | hook effect | 
2 | N#CCN(C(=O)CCCC[C@@H]1SC[C@@H]2NC(=O)N[C@@H]21)S(=O)(=O)c1ccc(C(=O)NCCCn2c(Sc3cc4c(cc3I)OCO4)nc3c(N)ncnc32)cc1 [HAC-B, N-(3-(6-amino-8-((6-iodobenzo[d][1,3]dioxol-5-yl)thio)-9H-purin-9-yl)propyl)-4-(N-(cyanomethyl)-N-(5-((3aS,4S,6aR)-2-oxohexahydro-1H-thieno[3,4-d]imidazol-4-yl)pentanoyl)sulfamoyl)benzamide] |  |  |  |  |  |  |  |  |  | failed to internalize NA-647 in a large quantity within 2 h

Source: patent publication US20250327028A1, “ENGINEERED PLATELETS AS TARGETED PROTEIN DEGRADERS” (Wisconsin Alumni Research Foundation, priority 2024, published 2025)
